In one assay the test system is rice. Put plainly: Test B flooded paddy test. In kind it is in vivo, Oryza sativa. The note with it: Oryza sativa, 312 h; 250 g ai/ha, Flood, 13 days, 0 to 100 scale (0 no effect, 100 complete control); read-out: Plant response rating, Rice. A digest of the protocol:
(§1)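 Two-leaf plants, 3 cm flood, in-water application, 13-day greenhouse hold, visual 0–100 rating vs untreated checks.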

The subject of assay [1] is blackgrass. The assay is described as follows: Test A preemergence. Format: in vivo, Alopecurus myosuroides. The note with it: Alopecurus myosuroides, pre-emergence, 240 h, read-out: Plant response rating, Blackgrass; for pest or weed control at 125 g/ha: 125 g ai/ha, visual injury after 10 days, 0 to 100 scale, 0 is no effect, 100 is complete control; for pest or weed control at 500 g/ha: 500 g ai/ha, 0 to 100 scale (0 no effect, 100 complete control), 10 days. A digest of the protocol: (§2)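 Weeds and crops in loam–sand blend were sprayed preemergence onto soil or postemergence at 2–10 cm (one- to two-leaf stage). Test chemicals were in a non-phytotoxic solvent with surfactant. After 10 days in the greenhouse, injury was rated visually against untreated controls on a 0 (no effect) to 100 (complete control) scale.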

The subject of another assay is pigweed, palmer. The assay is described as follows: Test A postemergence. In kind it is in vivo, Amaranthus palmeri. The note with it: Amaranthus palmeri, post-emergence, 240 h, read-out: Plant response rating, Pigweed, Palmer; for pest or weed control at 125 g/ha: 125 g ai/ha, postemergence, 10 days, visual injury, 0 to 100 scale (0 no effect, 100 complete control); for pest or weed control at 500 g/ha: 500 g ai/ha, Postemergence, 0 to 100 scale. Summed up:
as §2

The next assay deals with ducksalad. The assay is described as follows: Test B flooded paddy test. The note with it: Heteranthera limosa, 312 h, 250 g ai/ha, Flood, 13 days, 0 to 100 scale (0 no effect, 100 complete control); read-out: Plant response rating, Ducksalad. Format: in vivo, Heteranthera limosa. Summed up: as §1
Another assay deals with foxtail, giant. Put plainly: Test A preemergence. Format: in vivo, Setaria faberi. The note with it: Setaria faberi, pre-emergence, 240 h, read-out: Plant response rating, Foxtail, Giant; for pest or weed control at 125 g/ha: 125 g ai/ha, visual injury after 10 days, 0 to 100 scale, 0 is no effect, 100 is complete control; for pest or weed control at 500 g/ha: 500 g ai/ha, 0 to 100 scale (0 no effect, 100 complete control), 10 days. Summed up:
as §2

The test system of assay [2] is kochia. Put plainly: Test A preemergence. In kind it is in vivo, Bassia scoparia. The note with it: Bassia scoparia, pre-emergence, 240 h, read-out: Plant response rating, Kochia; for pest or weed control at 125 g/ha: 125 g ai/ha, visual injury after 10 days, 0 to 100 scale, 0 is no effect, 100 is complete control; for pest or weed control at 500 g/ha: 500 g ai/ha, 0 to 100 scale (0 no effect, 100 complete control), 10 days. A digest of the protocol: as §2

For a further assay, the system named is barnyardgrass. Put plainly: Test B flooded paddy test. Format: in vivo, Echinochloa crus-galli. The note with it: Echinochloa crus-galli, 312 h, 250 g ai/ha, Flood, 13 days, 0 to 100 scale (0 no effect, 100 complete control); read-out: Plant response rating, Barnyardgrass. A digest of the protocol: as §1
Assay [3] deals with blackgrass. The assay is described as follows: Test A postemergence. In kind it is in vivo, Alopecurus myosuroides. The note with it: Alopecurus myosuroides, post-emergence, 240 h, read-out: Plant response rating, Blackgrass; for pest or weed control at 125 g/ha: 125 g ai/ha, postemergence, 10 days, visual injury, 0 to 100 scale (0 no effect, 100 complete control); for pest or weed control at 500 g/ha: 500 g ai/ha, Postemergence, 0 to 100 scale. A digest of the protocol:
as §2

The test system of a further assay is corn. The assay is described as follows: Test A postemergence. Format: in vivo, Zea mays. The note with it: Zea mays, post-emergence, 240 h; for Corn plant response rating (crop injury, 0 = no effect, 100 = complete kill) at 125 g/ha: 125 g ai/ha, postemergence, 10 days, visual injury, 0 to 100 scale (0 no effect, 100 complete control); for Corn plant response rating (crop injury, 0 = no effect, 100 = complete kill) at 500 g/ha: 500 g ai/ha, Postemergence, 0 to 100 scale. Summed up: as §2

For another assay, the system named is horseweed. Put plainly: Test A postemergence. Format: in vivo, Erigeron canadensis. The note with it: Erigeron canadensis, post-emergence, 240 h, read-out: Plant response rating, Horseweed. Summed up:
as §2

Another assay concerns goosegrass. The assay is described as follows: Test A preemergence. In kind it is in vivo, Eleusine indica. The note with it: Eleusine indica, pre-emergence, 240 h, read-out: Plant response rating, Goosegrass; for pest or weed control at 125 g/ha: 125 g ai/ha, visual injury after 10 days, 0 to 100 scale, 0 is no effect, 100 is complete control; for pest or weed control at 500 g/ha: 500 g ai/ha, 0 to 100 scale (0 no effect, 100 complete control), 10 days. Summed up: as §2

The subject of another assay is oat, wild. Put plainly: Test A preemergence. Format: in vivo, Avena fatua. The note with it: Avena fatua, pre-emergence, 240 h, read-out: Plant response rating, Oat, Wild; for pest or weed control at 125 g/ha: 125 g ai/ha, visual injury after 10 days, 0 to 100 scale, 0 is no effect, 100 is complete control; for pest or weed control at 500 g/ha: 500 g ai/ha, 0 to 100 scale (0 no effect, 100 complete control), 10 days. A digest of the protocol: as §2

Assay [4] has as its system kochia. Put plainly: Test A postemergence. In kind it is in vivo, Bassia scoparia. The note with it: Bassia scoparia, post-emergence, 240 h, read-out: Plant response rating, Kochia; for pest or weed control at 125 g/ha: 125 g ai/ha, postemergence, 10 days, visual injury, 0 to 100 scale (0 no effect, 100 complete control); for pest or weed control at 500 g/ha: 500 g ai/ha, Postemergence, 0 to 100 scale. Summed up:
as §2

The test system of a further assay is ryegrass, Italian. Put plainly: Test A preemergence. In kind it is in vivo, Lolium multiflorum. The note with it: Lolium multiflorum, pre-emergence, 240 h, read-out: Plant response rating, Ryegrass, Italian; for pest or weed control at 125 g/ha: 125 g ai/ha, visual injury after 10 days, 0 to 100 scale, 0 is no effect, 100 is complete control; for pest or weed control at 500 g/ha: 500 g ai/ha, 0 to 100 scale (0 no effect, 100 complete control), 10 days. A digest of the protocol:
as §2

Regarding `COc1ccc(-n2cncn2)cc1C(=O)N1C[C@H](C)Oc2c(C)cccc21` [Compound 63, [(2S)-2,3-Dihydro-2,8-dimethyl-4H-1,4-benzoxazin-4-yl][2-methoxy-5-(1H-1,2,4-triazol-1-yl)phenyl]methanone], the plant injury at 250 g/ha in the assay on rice is 0%. The pest or weed control at 125 g/ha with blackgrass [1] is 80%; in the assay with pigweed, palmer, 30%; in the assay with foxtail, giant, 100%; in the assay on kochia [2], 30%; in the assay with blackgrass [3] it was 70%; in the assay with horseweed (125 g ai/ha, postemergence, 10 days, visual injury, 0 to 100 scale (0 no effect, 100 complete control)) it was 20%. In addition, the pest or weed control at 125 g/ha was determined as 100% in the assay with goosegrass; 60% in the assay with oat, wild; 10% in the assay on kochia [4]; 90% in the assay with ryegrass, Italian. In addition, the pest or weed control at 500 g/ha in the assay on blackgrass [1] amounted to 90%; in the assay with pigweed, palmer, 40%; in the assay with foxtail, giant, 100%; in the assay with kochia [2] it was 40%; in the assay with blackgrass [3], 90%; in the assay on horseweed (500 g ai/ha, Postemergence, 0 to 100 scale), 40%. Moreover, the pest or weed control at 500 g/ha in the assay with goosegrass came out at 100%; in the assay with oat, wild, 90%; in the assay on kochia [4] it was 20%; in the assay on ryegrass, Italian it was 100%. The pest or weed control at 250 g/ha amounted to 90% with ducksalad and 0% in the assay with barnyardgrass. This molecule also displayed a Corn plant response rating (crop injury, 0 = no effect, 100 = complete kill) at 125 g/ha in the assay on corn of 80%. The Corn plant response rating (crop injury, 0 = no effect, 100 = complete kill) at 500 g/ha in the assay with corn is 80%.

As to `Cc1cccc2c1O[C@@H](C)CN2C(=O)c1cccc(-n2cnc(Br)n2)c1` [Compound 61, [3-(3-Bromo-1H-1,2,4-triazol-1-yl)phenyl][(2S)-2,3-dihydro-2,8-dimethyl-4H-1,4-benzoxazin-4-yl]methanone], in the assay with rice, the plant injury at 250 g/ha is 0%. For the same molecule, the pest or weed control at 125 g/ha with blackgrass [1] is 50%; in the assay on pigweed, palmer it was 40%; in the assay with foxtail, giant, 90%; in the assay with kochia [2] it was 20%; with blackgrass [3] it was 20%; with goosegrass, 90%. For the same molecule, the pest or weed control at 125 g/ha amounted to 30% in the assay on oat, wild; 20% with kochia [4]; 90% in the assay with ryegrass, Italian. In addition, the pest or weed control at 500 g/ha in the assay with blackgrass [1] was 70%; in the assay with pigweed, palmer, 50%; with foxtail, giant, 90%; in the assay with kochia [2], 60%; in the assay with blackgrass [3], 40%; with goosegrass it was 90%. In addition, the pest or weed control at 500 g/ha in the assay with oat, wild was 30%; in the assay on kochia [4], 70%; with ryegrass, Italian, 100%. The pest or weed control at 250 g/ha in the assay with ducksalad came to 15%; in the assay with barnyardgrass it was 0%. In addition, the Corn plant response rating (crop injury, 0 = no effect, 100 = complete kill) at 125 g/ha with corn stood at 10%. In the assay on corn, this molecule had a Corn plant response rating (crop injury, 0 = no effect, 100 = complete kill) at 500 g/ha of 10%.
